Test results from patent US20070178577A1, “Method for effecting the anaerobic biological decomposition of organsiloxanes” (WACKER CHEMIE AG, priority 2004, published 2007).

How the values were obtained:
Sewage sludge = assay: Anaerobic decomposition of octamethylcyclosiloxane (D4) by sewage sludge with nitrate as electron acceptor, gas chromatography; details: in 11 days
Experimental: The experiment was carried out in accordance with Example 1. In each case five flasks were made up with sewage sludge and five flasks with inactivated sewage sludge. As carbon source, octamethylcyclosiloxane (D4) was added to the medium. The siloxane is immiscible with water and first forms an oily film on the culture surface. With advancing culture time, the siloxane oil is emulsified in the culture. Relatively large cell aggregates form. Culture proceeds in accordance with Example 1 in the mineral medium specified there (SM1) comprising 5 g/l of KNO3 as electron acceptor. As sole carbon source, octamethylcyclosiloxane (D4) was added to the batches (1 ml per 100 ml of medium). After differing incubation times, the D4 content of the batches was determined. The entire batch was extracted 3 times with 50 ml of pentane, and to facilitate phase separation, it was centrifuged each time. The pentane phases were combined and D4 determined quantitatively directly by means of gas chromatography (Hewlett Packard instrument hp5890_li). The gas-chromatographic determination proceeded using a 30 m capillary (Hewlett Packard HP-1 No. 59026323) using nitrogen as carrier gas. Temperature program: 50° C. (5 min)−270° C. at 20° C./min. Detection was by means of FID at 300° C. The resultant signal peaks were quantified using corresponding standard solutions.

[1] = test system: Sewage sludge from a municipal sewage treatment plant; assay: Anaerobic decomposition of dimethylsilanediol (DMSD) by sewage sludge with nitrate as electron acceptor, 1H-NMR; details: in 11 days
Source text: Sewage sludge from a municipal sewage treatment plant was taken off from running operations under oxygen-free conditions (N2-comprising sample vessels). To separate off interfering substrates, the cell mass was resuspended in 5-times the volume of an oxygen-free buffer (50 mmol/l of potassium phosphate pH 6.8) and centrifuged off. Oxygen-free solutions were produced by degassing the solution and purging with gaseous nitrogen.
The operation (resuspending/centrifuging) was repeated 3 times.
The washed oxygen-free cell mass was transferred in the absence of oxygen into shake flasks comprising culture medium (10 g of moist cell mass per 100 ml of medium). For control batches, the sewage sludge was autoclaved and inactivated thereby. […]
As electron acceptor, in addition, 5 g/l of KNO3 were added. […] Samples of the culture medium were taken off at regular intervals and analyzed immediately. […]
Analysis: In experiments using DMSD as a substrate, the change in concentration of DMSD in the aqueous phase was determined by means of proton magnetic resonance spectroscopy (^1H-NMR). […] Samples (0.9 ml) from the culture batches were taken off for this directly (via the stopper) from the vessel, admixed with standard (TSP in D2O; TSP=3-(trimethylsilyl)propionic acid-D4 sodium salt) and analyzed in the spectrometer. The DMSD signal can be quantified exactly via the known standard signal).

[2] = anaerobically incubated batch comprising sewage sludge
[3] = control batch (inactivated sewage sludge)

SMILES	decrease in the amount of D4 (Sewage sludge; [2])	decrease in the amount of D4 (Sewage sludge; [3])	decrease of the amount of DMSD [1, 2]	decrease of the amount of DMSD [1, 3]
C[Si]1(C)O[Si](C)(C)O[Si](C)(C)O[Si](C)(C)O1 [D4, Octamethylcyclosiloxane]	−16.3%	−6.2%	–	–
C[Si](C)(O)O [DMSD, Dimethylsilanediol]	–	–	−39%	−9%
